IC50 data for 4 molecules are collected here from patent US9908875B2, “Apoptosis signal-regulating kinase inhibitors” (Gilead Sciences, Inc., priority 2013, dated 2018).

Broadly, the IC50 is the concentration at which inhibition is half-maximal.

In this test the target is recombinant human ASK1 kinase (Homo sapiens (Human), UniProt Q99683). Kind of test: TR-FRET ASK1 (Apoptosis Signal-Regulating Kinase 1) kinase assay. Format: biochemical. As to conditions: 4 nM ASK1, 1 μM STK3 peptide substrate, 100 μM ATP, HTRF detection; average of quadruplicate determination; read-out: IC50 (nM), activities of the compounds of Formula (I) to ASK1. An excerpt:
I. TR-FRET ASK1 (Apoptosis Signal-Regulating Kinase 1) Kinase Assay
To evaluate the inhibitory activity of compounds of the invention against ASK1 (Apoptosis Signal-regulating Kinase 1) kinase, its activity was examined using a TR-FRET ASK1 kinase assay which determined the amount of phosphate transferred to a peptide substrate from ATP.
Dephosphorylated recombinant human ASK1 kinase was from Gilead Sciences. Small molecule kinase inhibitor staurosporine (Catalogue #S6942) and dithiothreitol (DTT, catalogue #43815-5G) were obtained from Sigma Chemicals (St. Louis, Mo.). ATP (catalogue #7724) was from Affymetrix (Santa Clara, Calif.) and test compounds were from Gilead Sciences. HTRF KinEASE™-STK S3 kit was obtained from Cisbio (Bedford, Mass.). All other reagents were of the highest grade commercially available.
The assay measures the phosphorylation level of a biotinylated peptide substrate by the ASK1 kinase using HTRF detection. This is a competitive, time-resolved fluorescence resonance energy transfer (TR-FRET) immunoassay, based on HTRF® KinEASE™-STK manual from Cisbio. Test compound, 1 μM STK3 peptide substrate, 4 nM of ASK1 kinase were incubated with 10 mM MOP buffer, pH. 7.0 containing 10 mM Mg-acetate, 0.025% NP-40, 1 mM DTT, 0.05% BSA and 1.5% glycerol for 30 minutes then 100 μM ATP was added to start the kinase reaction and incubated for 3 hr. Peptide antibody labeled with 1× Eu^3+ Cryptate buffer containing 10 mM EDTA and 125 nM Streptavidin XL665 were added to stop the reaction and phosphorylated peptide substrate was detected using Envision 2103 Multilabeled reader from PerkinElmer. The fluorescence was measured at 615 nm (Cryptate) and 665 nm (XL665) and a ratio of 665 nm/615 nm was calculated for each well. The resulting TR-FRET level (a ratio of 665 nm/615 nm) was proportional to the phosphorylation level. Under these assay conditions, the degree of phosphorylation of peptide substrate was linear with time and concentration for the enzyme. The assay system yielded consistent results with regard to Km and specific activities for the enzyme. For inhibition experiments (IC50 values), activities were performed with constant concentrations of ATP, peptide and several fixed concentrations of inhibitors. Staurosporine, the nonselective kinase inhibitor, was used as the positive control. All enzyme activity data are reported as an average of quadruplicate determination.
The IC50 values were calculated following equation: y=Range/{1+(x/IC50)^s}+Background where x and y represent the concentration of inhibitors and enzyme activity, respectively. Enzyme activity is expressed as the amount of Phosphate incorporated into substrate peptide from ATP. Range is the maximum y range (no inhibitor, DMSO control) and s is a slope factor.

Chain of recombinant human ASK1 kinase (Q99683 whole entry): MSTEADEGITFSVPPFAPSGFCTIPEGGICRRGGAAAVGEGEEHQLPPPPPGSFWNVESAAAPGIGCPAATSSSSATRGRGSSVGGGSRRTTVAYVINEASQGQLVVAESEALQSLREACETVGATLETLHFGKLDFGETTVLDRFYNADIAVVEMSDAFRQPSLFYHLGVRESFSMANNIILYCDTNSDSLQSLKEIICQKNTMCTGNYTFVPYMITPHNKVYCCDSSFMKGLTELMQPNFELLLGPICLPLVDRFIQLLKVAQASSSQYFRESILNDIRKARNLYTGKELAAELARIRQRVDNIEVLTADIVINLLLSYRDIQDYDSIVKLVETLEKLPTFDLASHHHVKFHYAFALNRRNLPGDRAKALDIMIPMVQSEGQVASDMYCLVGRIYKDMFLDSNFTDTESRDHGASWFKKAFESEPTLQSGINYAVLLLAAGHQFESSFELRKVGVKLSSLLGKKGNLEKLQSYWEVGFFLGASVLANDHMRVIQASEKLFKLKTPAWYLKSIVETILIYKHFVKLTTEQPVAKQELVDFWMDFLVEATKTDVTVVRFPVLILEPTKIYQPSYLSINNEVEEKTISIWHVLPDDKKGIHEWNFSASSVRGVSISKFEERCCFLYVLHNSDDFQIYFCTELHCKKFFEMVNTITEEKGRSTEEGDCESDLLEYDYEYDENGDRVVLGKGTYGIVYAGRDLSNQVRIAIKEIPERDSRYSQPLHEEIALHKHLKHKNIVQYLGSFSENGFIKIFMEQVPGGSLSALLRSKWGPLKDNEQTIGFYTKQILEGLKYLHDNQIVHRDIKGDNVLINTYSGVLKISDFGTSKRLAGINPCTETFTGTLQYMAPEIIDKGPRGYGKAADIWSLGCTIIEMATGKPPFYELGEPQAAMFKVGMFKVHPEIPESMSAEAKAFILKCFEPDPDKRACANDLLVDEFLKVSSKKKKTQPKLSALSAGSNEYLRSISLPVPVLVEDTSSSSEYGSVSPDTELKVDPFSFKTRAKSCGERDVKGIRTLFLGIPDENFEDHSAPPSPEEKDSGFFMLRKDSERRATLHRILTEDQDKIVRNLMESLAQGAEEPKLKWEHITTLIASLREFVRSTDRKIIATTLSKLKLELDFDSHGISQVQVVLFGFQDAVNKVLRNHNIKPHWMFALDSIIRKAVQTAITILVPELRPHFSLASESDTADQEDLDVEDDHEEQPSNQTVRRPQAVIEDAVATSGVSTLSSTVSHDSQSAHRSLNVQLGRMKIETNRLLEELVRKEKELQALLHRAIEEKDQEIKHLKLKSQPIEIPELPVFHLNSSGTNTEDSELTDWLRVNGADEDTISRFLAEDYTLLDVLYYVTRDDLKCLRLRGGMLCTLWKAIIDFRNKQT

In the case of `C[C@H](n1cnnc1-c1nc(NC(=O)c2cc(-n3cnc(C4CC4)c3)c(N3CC(C)(C#N)C3)cn2)cs1)C(F)(F)F` [Compound 24, (S)-5-(3-cyano-3-methylazetidin-1-yl)-4-(4-cyclopropyl-1H-imidazol-1-yl)-N-(2-(4-(1,1,1-trifluoropropan-2-yl)-4H-1,2,4-triazol-3-yl)thiazol-4-yl)picolinamide], the IC50 turned out to be 1.4 nM.

`COC1CCN(c2cnc(C(=O)Nc3csc(-c4nncn4[C@@H](C)C(F)(F)F)n3)cc2-n2cnc(C3CC3)c2)C1` (stereo partly drawn) [Compound 28, 4-(4-cyclopropyl-1H-imidazol-1-yl)-5-(3-methoxypyrrolidin-1-yl)-N-(2-(4-((S)-1,1,1-trifluoropropan-2-yl)-4H-1,2,4-triazol-3-yl)thiazol-4-yl)picolinamide]: the IC50 amounted to 1.9 nM.

For the molecule `C[C@H](n1cnnc1-c1nc(NC(=O)c2cc(-n3cnc(C4CC4)c3)c(N3CCN(CC(F)(F)F)CC3)cn2)cs1)C(F)(F)F` [Compound 33, (S)-4-(4-cyclopropyl-1H-imidazol-1-yl)-5-(4-(2,2,2-trifluoroethyl)piperazin-1-yl)-N-(2-(4-(1,1,1-trifluoropropan-2-yl)-4H-1,2,4-triazol-3-yl)thiazol-4-yl)picolinamide], the IC50 is 1.2 nM.

With `O=C(Nc1csc(-c2nncn2C2CC2)n1)c1cc(-n2cnc(C3CC3)c2)c(N2CCN3CCCC3C2)cn1` (stereo not shown) [Compound 15, 5-(3,4,6,7,8,8a-hexahydro-1H-pyrrolo[1,2-a]pyrazin-2-yl)-4-(4-cyclopropylimidazol-1-yl)-N-[2-(4-cyclopropyl-1,2,4-triazol-3-yl)-1,3-thiazol-4-yl]pyridine-2-carboxamide], the IC50 was 2.7 nM.
